We go through 11 molecules from patent US7566722B2, “Triazolopyrimidine derivatives as ADP P2Y12 receptor antagonists” (Janssen Pharmaceutica, N.V., priority 2006, dated 2009).

One assay has as its system platelets. The assay is described as follows: In vitro platelet aggregation (ADP-induced, washed platelets). As to conditions: Homo sapiens, washed platelets from healthy volunteers, agonist giving 60-70% aggregation, % inhibition of control ADP response. The format is cell-based. The method, then:
Platelet aggregation studies were performed according to a published method (Bednar, B., Condra, C., Gould, R. J., and Connolly, T. M., Throm. Res., 77:453-463 (1995). Platelet-rich plasma (PRP) concentrates prepared from healthy volunteers who were aspirin free for at least 7 days by venipuncture using ACD-A as anticoagulant was purchased from Biological Specialties, Inc. (Colmar, Pa.). PRP was centrifuged at 730 g for 15 min. The platelet pellet was washed twice in CGS buffer (13 mM sodium citrate, 30 mM glucose, 120 mM NaCl, pH 6.5) containing 1 μ/ml apyrase (grade V, Sigma-Aldrich, St. Louis, Mo.), 1 mM EGTA, and resuspended in Tyrode's buffer (140 mM NaCl, 2.7 mM KCl, 12 mM NaHCO3, 0.76 mM Na2HPO4, 5.5 mM dextrose, 5.0 mM Hepes, 0.2% BSA, pH 7.4). The platelets were diluted to 3×10^8 platelets/ml and kept >45 min at 37° C. before use. 105 μl of washed platelets, 2 mM CaCl2 and […] of fibrinogen were added to a 96-well microliter plate.
Platelet aggregation was initiated by the addition of serial concentrations of ADP (BioData Corp. Horsham, Pa.). Buffer was added to one set of control wells. The assay plate was stirred constantly and intermittently placed in a microplate reader (Softmax, Molecular Devices, Menlo Park, Calif.) to read optical density (650 nm) at 0 and 5 minutes after the addition of the compound solutions. Aggregation was calculated as the decrease in optical density between the time 0- and 5-min measurements and expressed as % of aggregation. For the inhibition assay, platelet aggregation was conducted as described above except for compound additions. Test compounds were prepared in 100% DMSO and stored.
On the day of the assay, test compounds were diluted in the buffer containing 3% of DMSO as a 10× working solution. 15 μl of compound solutions were added to 105 μl of platelets 5 min prior to the addition of CaCl2 and fibrinogen.

In the next assay the target is T1, P2Y12 receptor (Homo sapiens, UniProt Q9H244).
T1 construct: expressed in transfected cells
T1 sequence (Q9H244 whole entry): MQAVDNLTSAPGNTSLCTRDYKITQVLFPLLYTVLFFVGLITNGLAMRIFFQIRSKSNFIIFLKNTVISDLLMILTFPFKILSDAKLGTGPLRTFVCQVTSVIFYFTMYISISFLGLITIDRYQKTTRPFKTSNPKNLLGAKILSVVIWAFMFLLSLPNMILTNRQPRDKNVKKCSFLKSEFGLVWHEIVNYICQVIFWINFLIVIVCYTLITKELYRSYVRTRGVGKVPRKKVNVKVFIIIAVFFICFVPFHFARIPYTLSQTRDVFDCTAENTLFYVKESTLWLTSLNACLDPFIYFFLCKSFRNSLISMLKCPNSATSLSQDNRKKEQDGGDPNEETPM
The assay is described as follows: Whole cell receptor binding assay, 2-MeS[3H]-ADP. As to conditions: HEK 293 cells stably transfected with P2Y12; 2-MeS[3H]-ADP 3 nM; 30 min at 37° C.; read-out: Inhibition of Receptor Binding (IC50 μM). The method, then:
A whole cell-binding assay for 2-MeS [^3H]-ADP (Custom synthesized by Amersham BioScience, Piscataway, N.J.) to the P2Y12 receptor was performed.
A P2Y12 cDNA containing hygromycin resistant gene was transfected in HEK 293 cells. A stable cell line was obtained by a cloning selection method. The cells were cultured in DMEM supplemented with 10% FBS and 1× of p/s.
On the day of the assay, the cells were harvested and resuspended in 0.25% BSA-DMEM and adjusted to a cell concentration of 1.6×10^6/ml. 15 μl of each compound was mixed with 120 μl of cell suspension in 96 well assay plates and incubated for 5 min prior to the addition of the radio-labeled ligand 2-MeS[^3H]-ADP (3 nM final in 0.25% BSA-DMEM) or unlabeled […] (for non-specific binding). The reaction was then incubated for 30 min at 37° C. and stopped by adding cold DMEM. The labeled and unlabeled cells were separated by a filtration method using a Packard Filtermate 196 on to the unfilter-96 GF/B plate. The plates were dyed in a 37° C. oven for 1-2 hours and 50 μl of MicroScint-20 (PerkinElmer) was added to each well. The radioactivity was measured using a TOPCOUNT beta counter (Packard). The percent inhibition for each compound was calculated by the change in radioactivity as a % inhibition of the control to obtain an IC50, as shown in Table 2.

Another assay addresses T2, ADP P2Y12 receptor (Homo sapiens, UniProt Q9H244).
T2 construct: expressed in transfected cells
The assay is described as follows: FLIPR calcium assay transducing Gi-coupled signaling to the Gq pathway (inhibition of ADP-induced calcium mobilization). The class given is cell-based. As to conditions: HEK 293 cells co-transfected with P2Y12 and Gqi5, ADP at EC60-70 dose. The source says:
A FLIPR Calcium Assay Transducing Gi-Coupled Signaling to the Gq Pathway
The ADP P2Y12 subtype is a Gi coupled GPCR, which mediates inhibition of adenylate cyclase leading to decreased cAMP while Gq proteins primarily activate phospholipase C, which stimulates inositol-1,4,5-triphosphate (IP3) formation and a subsequent increase in intracellular Ca^2+ concentration, which can be easily measured by FLIPR. Prior to the development of a method to convert a Gi coupled GPCR signaling to a Gq coupled GPCR signaling, a significant barrier existed for the functional testing and screening of Gi coupled GPCRs. One popular method, GTPγS migration, is slow, produces a small signal and generates radioactive waste. The discovery that a small switch in the amino acid sequence in the Gi protein could convert it to a protein mediating a Gq coupled response has led to the development of robust, high throughput assays for this valuable receptor subtype.
The FLIPR-based HTS assay transducing the Gi signaling to the Gq pathway is described below.
pcDNA3hygroP2Y12 containing a hygromycin resistance gene and pLEC1-Gqi5-HA containing a neomycin resistance gene (licensed from Molecular Devices, Sunnyvale, Calif.) were co-transfected into Human embryonic kidney (HEK) 293 cells with SuperFect (Qiagen, Valencia, Calif.). Cell clones were selected in the presence of 600 μg/ml hygromycin B (Life Technologies, Carlsbad, Calif.) and 1 mg/ml of G418 (Mediatech, Herndon, Va.). Drug resistant colonies were picked and screened by FLIPR and the gene expression was further confirmed by RT-PCR. Positive clones were maintained in growth medium (DMEM supplemented with 10% FBS, 1× p/s) containing 400 μg/ml of G418 and 200 μg/ml of hygromycin.
The day before the assay, cells are seeded in clear, flat-bottom black-wall, tissue culture treated polystyrene 96- or 384-well plates and incubated at 37° C., 5% CO2. 50 μl of complete dye loading solution (FLIPR Calcium Assay Kit, Molecular Devices) was added to each well containing 100 μl of culture media. The cells were incubated for at least 30 min at 37° C., in 5% CO2 before initiating the assay on the FLIPR. The agonist effect of ADP was tested and EC50 was determined prior to compound testing. The EC60-70 dose was used.
The antagonist compounds were prepared at 4× and the agonists were diluted at 5× the concentration desired in the test wells, and then aliquoted into the sample plates. The sample plates and the cell plate were placed in the FLIPR assay chamber. A first addition (50 μl) was made at the start of reading and a second addition (50 μl) was made after 5 min of reading. Raw fluorescence data was exported for each well and tabulated versus time within an ASCII file. Data was then imported into Excel and the peak response over the basal level was determined. The percent inhibition for each compound was calculated by the change in fluorescent density as a % inhibition of the control ADP response to obtain an IC50, as shown in Table 1 (wherein N/A means Not Applicable).
For orientation: Calcium assays in cells follow changes in intracellular calcium, usually with a dye or a luminescent sensor.

In general, IC50 refers to the midpoint of a concentration-inhibition curve.

T2 sequence (Q9H244 whole entry): as above

Regarding `CCCSc1nc(NC[C@@H]2CCCO2)c2nnn([C@@H]3C[C@H](c4nnn[nH]4)[C@@H](O)[C@H]3O)c2n1` [Cpd 9, (1R,2S,3R,5R)-3-(5-propylsulfanyl-7-{[(2S)-tetrahydro-furan-2-ylmethyl]-amino}-[1,2,3]triazolo[4,5-d]pyrimidin-3-yl)-5-(1H-tetrazol-5-yl)-cyclopentane-1,2-diol], the IC50 amounted to 4.37 µM in the assay on platelets, 0.237 µM on P2Y12 receptor and 2.02 µM at ADP P2Y12 receptor.
Consider `CCCCNc1nc(SCCC)nc2c1nnn2[C@@H]1C[C@H](C2=NCCN2)[C@@H](O)[C@H]1O` [Cpd 11, (1R,2S,3R,5R)-3-(7-butylamino-5-propylsulfanyl-[1,2,3]triazolo[4,5-d]pyrimidin-3-yl)-5-(4,5-dihydro-1H-imidazol-2-yl)-cyclopentane-1,2-diol], for which the values for the IC50 in the assay on platelets, at P2Y12 receptor and at ADP P2Y12 receptor were above 30 µM, 4.61 µM and above 30 µM, respectively.
Turning to `CCCSc1nc(NC[C@H](C)c2ccccc2)c2nnn([C@@H]3C[C@H](c4nnc(C)[nH]4)[C@@H](O)[C@H]3O)c2n1` [Cpd 17, (1S,2R,3R,5R)-3-(5-methyl-4H-[1,2,4]triazol-3-yl)-5-{7-[(2R)-2-phenylpropylamino]-5-propylsulfanyl-[1,2,3]triazolo[4,5-d]pyrimidin-3-yl}-cyclopentane-1,2-diol], the results for the IC50 in the assay with platelets, on P2Y12 receptor and at ADP P2Y12 receptor were above 30 µM, 9.59 µM and above 30 µM, respectively.
As for `CCCSc1nc(NC[C@@H](C)c2ccccc2)c2nnn([C@@H]3C[C@H](c4nnc(C)[nH]4)[C@@H](O)[C@H]3O)c2n1` [Cpd 16, (1S,2R,3R,5R)-3-(5-methyl-4H-[1,2,4]triazol-3-yl)-5-{7-[(2S)-2-phenylpropylamino]-5-propylsulfanyl-[1,2,3]triazolo[4,5-d]pyrimidin-3-yl}-cyclopentane-1,2-diol], the values for the IC50 with platelets, at P2Y12 receptor and at ADP P2Y12 receptor were above 30 µM, 3.88 µM and above 30 µM, respectively.
As to `CCCSc1nc(N[C@@H]2C[C@H]2c2ccccc2)c2nnn([C@@H]3C[C@H](c4nnc(C)[nH]4)[C@@H](O)[C@H]3O)c2n1` (mixture of isomers) [Cpd 14, (1S,2R,3R,5R)-3-(5-methyl-4H-[1,2,4]triazol-3-yl)-5-{7-[(1RS,2SR)-2-phenyl-cyclopropylamino]-5-propylsulfanyl-[1,2,3]triazolo[4,5-d]pyrimidin-3-yl}-cyclopentane-1,2-diol], the results for the IC50 with platelets, on P2Y12 receptor and on ADP P2Y12 receptor were 0.064 µM, 0.735 µM and 0.265 µM, respectively.
Consider `CCCSc1nc(NCCc2ccccc2)c2nnn([C@@H]3C[C@H](c4nnn[nH]4)[C@@H](O)[C@H]3O)c2n1` [Cpd 12, (1R,2S,3R,5R)-3-(7-phenethylamino-5-propylsulfanyl-[1,2,3]triazolo[4,5-d]pyrimidin-3-yl)-5-(1H-tetrazol-5-yl)-cyclopentane-1,2-diol], for which the IC50 with platelets was 0.292 µM; on P2Y12 receptor, 0.73 µM; at ADP P2Y12 receptor, 0.416 µM.
In the same order, the values of `CCCSc1nc(NCC(F)(F)F)c2nnn([C@@H]3C[C@H](c4nnn[nH]4)[C@@H](O)[C@H]3O)c2n1` [Cpd 8, (1R,2S,3R,5R)-3-[5-propylsulfanyl-7-(2,2,2-trifluoro-ethylamino)-[1,2,3]triazolo[4,5-d]pyrimidin-3-yl]-5-(1H-tetrazol-5-yl)-cyclopentane-1,2-diol] are 1.21 µM, 0.665 µM and 3.12 µM.
With `CCCSc1nc(N[C@@H]2C[C@H]2c2ccccc2)c2nnn([C@@H]3C[C@H](c4nnn[nH]4)[C@@H](O)[C@H]3O)c2n1` [Cpd 22, (1R,2S,3R,5R)-3-{7-[(1R,2S)-2-phenyl-cyclopropylamino]-5-propylsulfanyl-[1,2,3]triazolo[4,5-d]pyrimidin-3-yl}-5-(1H-tetrazol-5-yl)-cyclopentane-1,2-diol], the figures for the IC50 in the assay on platelets, at P2Y12 receptor and at ADP P2Y12 receptor were 0.002 µM, 0.002 µM and 0.024 µM, respectively.
Regarding `CCCSc1nc(N[C@@H]2C[C@H]2c2ccccc2)c2nnn([C@@H]3C[C@H](Cn4ccnn4)[C@@H](O)[C@H]3O)c2n1` (mixture of isomers) [Cpd 7, (1R,2S,3R,5R)-3-{7-[(1RS,2SR)-2-phenyl-cyclopropylamino]-5-propylsulfanyl-[1,2,3]triazolo[4,5-d]pyrimidin-3-yl}-5-[1,2,3]triazol-1-ylmethyl-cyclopentane-1,2-diol], the IC50 worked out at 0.333 µM in the assay on platelets, 0.134 µM on P2Y12 receptor and 0.507 µM at ADP P2Y12 receptor.
`CCCSc1nc(N[C@@H]2C[C@H]2c2ccccc2)c2nnn([C@@H]3C[C@H](Cn4nccn4)[C@@H](O)[C@H]3O)c2n1` (mixture of isomers) [Cpd 6, (1R,2S,3R,5R)-3-{7-[(1RS,2SR)-2-phenyl-cyclopropylamino]-5-propylsulfanyl-[1,2,3]triazolo[4,5-d]pyrimidin-3-yl}-5-[1,2,3]triazol-2-ylmethyl-cyclopentane-1,2-diol]: the IC50 with platelets amounted to 0.954 µM; on P2Y12 receptor, 0.437 µM; at ADP P2Y12 receptor it was 0.98 µM.
As for `CCCCNc1nc(SCCC)nc2c1nnn2[C@@H]1C[C@H](c2nnc(C)[nH]2)[C@@H](O)[C@H]1O` [Cpd 13, (1R,2S,3R,5R)-3-(7-butylamino-5-propylsulfanyl-[1,2,3]triazolo[4,5-d]pyrimidin-3-yl)-5-(5-methyl-4H-[1,2,4]triazol-3-yl)-cyclopentane-1,2-diol], the IC50 came out at 1.39 µM with platelets, 2.16 µM on P2Y12 receptor and 2.17 µM at ADP P2Y12 receptor.
